Data published in EP1432683B9 (Recordati Ireland Limited, priority 2001, dated 2003).
Where a name gives a salt, the structure may show the parent alone.

Assays:
[1] = oral administration; cited from earlier work
[2] = Solubility of crude forms compared with other crude forms; format: physicochemical

SMILES: COC(=O)C1=C(C)NC(C)=C(C(=O)OC(C)(C)CN(C)CCC(c2ccccc2)c2ccccc2)C1c1cccc([N+](=O)[O-])c1 (centres unmarked) [Lercanidipine, methyl 1,1,N-trimethyl-N-(3,3-diphenylpropyl)-2-aminoethyl 1,4-dihyaro-2,6-dimethyl-4-(3-nitrophenyl)pyridine-3,5-dicarboxylate]
- peak plasma levels occurring (time following dosing) [1]: 2 to 3 h

SMILES: COC(=O)C1=C(C)NC(C)=C(C(=O)OC(C)(C)CN(C)CCC(c2ccccc2)c2ccccc2)C1c1cccc([N+](=O)[O-])c1 (centres unmarked) [Form (A), lercanidipine hydrochloride]
- solubility compared to other crude forms previously reported [2]: higher solubility
